Measured values from patent US4201774A, “Novel aminoglycoside derivatives” (Shionogi & Co., Ltd., priority 1977, dated 1980).
≈ marks a conversion by molar mass, not a printed value.

What was measured:
[1] = tested on: Pseudomonas aeruginosa TB-485; experiment: MIC, Pseudomonas aeruginosa TB-485*; assay type: cell-based; settings: TB485; Pseudomonas aeruginosa TB-485, tobramycin resistant strain; read-out: minimum inhibitory concentration (MIC)
Proteus mirabilis TB-617 = experiment: MIC, Proteus mirabilis TB-617*; assay type: cell-based; settings: TB617; Proteus mirabilis TB-617, tobramycin resistant strain; read-out: minimum inhibitory concentration (MIC)

Structure (SMILES) | MIC [1] | MIC (Proteus mirabilis TB-617)
NC[C@H]1O[C@H](O[C@H]2[C@H](O)[C@@H](O[C@H]3O[C@H](CO)[C@@H](O)[C@H](N)[C@H]3O)[C@H](NCC3(O)CNC3)C[C@@H]2N)[C@H](N)C[C@@H]1O [Test compound (1), 1-N-[(3-hydroxyazetidin-3-yl)methyl]tobramycin] | 6.25 µg/mL (≈ 11.3 µM) | 1.56 µg/mL (≈ 2.82 µM)
NC[C@H]1O[C@H](O[C@H]2[C@H](O)[C@@H](O[C@H]3O[C@H](CO)[C@@H](O)[C@H](N)[C@H]3O)[C@H](NCC3(O)CCNC3)C[C@@H]2N)[C@H](N)C[C@@H]1O (stereo partly shown) [Test compound (2), 1-N-[(3-hydroxypyrrolidin-3-yl)methyl]tobramycin] | 3.13 µg/mL (≈ 5.52 µM) | 1.56 µg/mL (≈ 2.75 µM)
NC[C@H]1O[C@H](O[C@H]2[C@H](O)[C@@H](O[C@H]3O[C@H](CO)[C@@H](O)[C@H](N)[C@H]3O)[C@H](NCC3(O)CNC3)C[C@@H]2N)[C@H](O)[C@@H](O)[C@@H]1O [Test compound (3), 1-N-[(3-hydroxyazetidin-3-yl)methyl]kanamycin A] | 6.25 µg/mL (≈ 11 µM) | 6.25 µg/mL (≈ 11 µM)
NC[C@H]1O[C@H](O[C@H]2[C@H](O)[C@@H](O[C@H]3O[C@H](CO)[C@@H](O)[C@H](N)[C@H]3O)[C@H](NCC3(O)CCNC3)C[C@@H]2N)[C@H](O)[C@@H](O)[C@@H]1O (stereo partly shown) [Test compound (4), 1-N-[(3-hydroxypyrrolidin-3-yl)methyl]kanamycin A] | 6.25 µg/mL (≈ 10.7 µM) | 3.13 µg/mL (≈ 5.36 µM)
NC[C@H]1O[C@H](O[C@H]2[C@H](O)[C@@H](O[C@H]3O[C@H](CO)[C@@H](O)[C@H](N)[C@H]3O)[C@H](N)C[C@@H]2N)[C@H](N)C[C@@H]1O [Test compound (5), tobramycin, reference compound] | 25 µg/mL (≈ 53.5 µM) | 6.25 µg/mL (≈ 13.4 µM)
